A short description of data set [1]: Microsomal clearance assay (M). As to conditions: intrinsic clearance in rat liver microsomes. For orientation: Liver microsomes are vesicles of endoplasmic reticulum, rich in cytochrome P450 enzymes.
Description: The experiments were performed in 96-well glass plates at 37° C. on an automated Tecan EVO platform. Test compounds at a concentration of 10 mM in pure DMSO were diluted 1:1000 in water to 10 μM. […] Reactions were initiated by the addition of 150 μL of a cofactor solution containing 2 mM NADPH.
The target in data set [2] is T1, PI 3-kinase gamma (Homo sapiens, UniProt P48736). The data set can be described thus: TR-FRET Adapta assay, assay E. In kind it is biochemical. To be noted: read-out: Assay E PI3Kγ IC50. Background: TR-FRET usually uses a lanthanide donor and a delayed reading to cut background.
T1 sequence (P48736 whole entry): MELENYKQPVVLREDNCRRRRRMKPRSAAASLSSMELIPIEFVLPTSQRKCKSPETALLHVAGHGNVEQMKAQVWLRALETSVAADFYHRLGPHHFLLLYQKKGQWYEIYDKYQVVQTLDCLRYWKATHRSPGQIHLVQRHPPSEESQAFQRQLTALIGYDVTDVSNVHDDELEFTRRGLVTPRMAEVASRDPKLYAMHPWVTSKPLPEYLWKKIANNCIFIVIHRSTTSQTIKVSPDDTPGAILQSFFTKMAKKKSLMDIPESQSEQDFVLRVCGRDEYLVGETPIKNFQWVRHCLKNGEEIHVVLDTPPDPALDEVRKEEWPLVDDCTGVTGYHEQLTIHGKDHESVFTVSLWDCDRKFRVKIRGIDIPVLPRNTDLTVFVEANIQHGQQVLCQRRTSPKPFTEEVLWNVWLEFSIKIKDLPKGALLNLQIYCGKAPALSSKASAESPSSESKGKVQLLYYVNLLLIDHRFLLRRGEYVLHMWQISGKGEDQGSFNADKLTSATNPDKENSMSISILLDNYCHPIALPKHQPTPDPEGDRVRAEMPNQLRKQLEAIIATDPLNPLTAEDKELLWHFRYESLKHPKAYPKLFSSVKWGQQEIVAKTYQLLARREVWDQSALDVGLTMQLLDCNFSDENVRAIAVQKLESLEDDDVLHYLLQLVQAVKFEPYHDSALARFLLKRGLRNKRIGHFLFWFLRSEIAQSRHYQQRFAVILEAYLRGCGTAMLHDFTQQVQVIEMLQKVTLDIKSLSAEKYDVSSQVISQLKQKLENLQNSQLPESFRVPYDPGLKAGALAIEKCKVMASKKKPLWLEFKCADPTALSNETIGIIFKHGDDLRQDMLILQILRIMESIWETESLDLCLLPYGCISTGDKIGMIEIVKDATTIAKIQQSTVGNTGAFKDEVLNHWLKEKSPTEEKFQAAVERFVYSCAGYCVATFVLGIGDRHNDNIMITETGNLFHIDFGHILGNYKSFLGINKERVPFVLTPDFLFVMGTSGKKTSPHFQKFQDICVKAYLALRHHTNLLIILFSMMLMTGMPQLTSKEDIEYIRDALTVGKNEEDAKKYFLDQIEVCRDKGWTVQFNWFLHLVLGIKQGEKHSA
In the next data set the target is PI 4-kinase beta (Homo sapiens, UniProt Q9UBF8). Nature of the data set: Kinase Glo Luminescent Kinase Assay (Kglo), assay D. It is filed as biochemical. As to conditions: read-out: Assay D PI4Kβ IC50. A general note: Kinase-Glo reads ATP consumption through a luciferase reaction.
PI 4-kinase beta, sequence (Q9UBF8 whole entry): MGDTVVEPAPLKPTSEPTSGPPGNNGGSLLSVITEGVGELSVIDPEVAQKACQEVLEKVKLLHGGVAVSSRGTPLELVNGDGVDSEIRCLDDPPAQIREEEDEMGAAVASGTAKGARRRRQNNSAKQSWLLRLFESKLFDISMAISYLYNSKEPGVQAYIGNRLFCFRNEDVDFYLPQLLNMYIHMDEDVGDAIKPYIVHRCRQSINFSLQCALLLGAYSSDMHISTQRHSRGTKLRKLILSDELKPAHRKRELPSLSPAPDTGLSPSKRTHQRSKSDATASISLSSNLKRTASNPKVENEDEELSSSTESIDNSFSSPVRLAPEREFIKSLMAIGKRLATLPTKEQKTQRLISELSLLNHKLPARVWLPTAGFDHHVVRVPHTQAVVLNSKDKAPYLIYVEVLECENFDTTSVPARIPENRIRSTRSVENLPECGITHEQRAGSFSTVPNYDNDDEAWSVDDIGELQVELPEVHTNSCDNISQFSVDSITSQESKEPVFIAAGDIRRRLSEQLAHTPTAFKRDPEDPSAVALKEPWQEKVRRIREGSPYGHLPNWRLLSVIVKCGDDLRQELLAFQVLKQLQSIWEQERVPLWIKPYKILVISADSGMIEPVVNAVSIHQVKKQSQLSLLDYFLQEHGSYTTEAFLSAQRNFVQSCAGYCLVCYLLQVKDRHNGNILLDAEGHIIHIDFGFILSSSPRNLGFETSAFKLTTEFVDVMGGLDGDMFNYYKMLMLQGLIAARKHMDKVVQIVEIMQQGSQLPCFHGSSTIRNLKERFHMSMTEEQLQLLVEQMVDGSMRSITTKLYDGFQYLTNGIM
In data set [3] the target is T2, PI 3-kinase alpha (Homo sapiens, UniProt P42336). Nature of the data set: Kinase Glo Luminescent Kinase Assay (Kglo), assay A. In kind it is biochemical. As to conditions: read-out: Assay A PI3Kα IC50.
The target in a further data set is Vps34 (Homo sapiens, UniProt Q8NEB9). Nature of the data set: Kinase Glo Luminescent Kinase Assay (Kglo), assay C. In kind it is biochemical. As to conditions: read-out: Assay C VPS34 IC50.
Vps34, sequence (Q8NEB9 whole entry, species assumed): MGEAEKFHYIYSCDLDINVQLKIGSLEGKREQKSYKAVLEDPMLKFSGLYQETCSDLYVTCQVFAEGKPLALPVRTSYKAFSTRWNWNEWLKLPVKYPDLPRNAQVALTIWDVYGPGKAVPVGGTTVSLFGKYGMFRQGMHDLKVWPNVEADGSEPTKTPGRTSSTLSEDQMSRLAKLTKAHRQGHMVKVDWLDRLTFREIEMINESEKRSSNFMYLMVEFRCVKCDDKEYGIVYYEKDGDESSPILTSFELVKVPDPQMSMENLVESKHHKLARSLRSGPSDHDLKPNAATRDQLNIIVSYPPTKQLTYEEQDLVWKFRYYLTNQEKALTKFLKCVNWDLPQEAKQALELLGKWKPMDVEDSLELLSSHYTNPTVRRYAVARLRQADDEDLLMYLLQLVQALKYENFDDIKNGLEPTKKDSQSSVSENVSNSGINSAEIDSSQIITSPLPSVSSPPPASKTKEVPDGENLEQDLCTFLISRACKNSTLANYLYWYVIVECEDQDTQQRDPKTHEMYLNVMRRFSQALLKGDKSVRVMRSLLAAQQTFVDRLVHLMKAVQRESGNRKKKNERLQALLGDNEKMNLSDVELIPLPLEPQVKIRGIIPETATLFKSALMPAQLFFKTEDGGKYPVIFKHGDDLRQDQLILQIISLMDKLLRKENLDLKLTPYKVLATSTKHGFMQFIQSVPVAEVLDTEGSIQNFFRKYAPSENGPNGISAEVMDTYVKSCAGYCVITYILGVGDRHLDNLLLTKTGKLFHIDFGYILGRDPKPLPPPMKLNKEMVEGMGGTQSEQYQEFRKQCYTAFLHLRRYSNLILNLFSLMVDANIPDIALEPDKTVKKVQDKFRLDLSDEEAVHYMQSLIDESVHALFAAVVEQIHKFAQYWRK
The target of data set [4] is T1, PI 3-kinase gamma. Nature of the data set: Cellular U937 AKT assay K2 (HTRF). In kind it is cell-based. As to conditions: U937 cells, K2 format; read-out: Assay K2 PI3Kγ IC50.
Description: In assays K1 and K2, the compounds were tested for their ability to inhibit the production of phosphorylated AKT (Protein Kinase B) generated in a PI 3-kinase gamma isoform-dependent process in a U937 human cell line.
Cellular U937 AKT Assay for PI 3-Kinase Gamma (K2)
U937 cells are split every 3-4 days: 5×10^6 cells/flask (175 cm^2) in 40 ml.
Semi-automated preparation of cell lysates: Cells were resuspended in HBSS, seeded (200′000 cells/well/60 μl) into a 384-well plate and incubated in a humidified 37° C., 5% CO2 incubator for 1.5 hours. The compounds were diluted with HBSS and 40 μl were added to the starved cells (except for wells 24 I-P). […] The cells were then incubated for 30 minutes at 37° C. and 5% CO2. Stimulation occurred during 3 minutes by addition of 20 μl MIP1α (final 10 ng/ml, diluted in HBSS) in the incubator. Wells 24 A-H were only stimulated with HBSS.
The stimulation was then stopped by putting the cell plates on ice (filled with cold water). The cells were then centrifuged at 1200 rpm and 4° C. for 3 minutes.
80 μl of supernatant was removed. The cells were again centrifuged at 1200 rpm and 4° C. for 3 minutes. The supernatant was then removed by turning plates upside down and 30 μl of lysis buffer were added. The plate was incubated at room temperature for 30 minutes under shaking. 16 μl were then transferred to a ProxiPlate Plus 384-well. 4 μl of the master mix (each conjugate diluted 1:20 with detection reagent) were added to each well and the plate was kept in the dark at room temperature for 4 hours.
Data set [5] concerns the target T1, PI 3-kinase gamma. The data set can be described thus: Cellular U937 AKT assay K1 (MSD). To be noted: U937 cells, K1 format; read-out: Assay K1 PI3Kγ IC50. In kind it is cell-based.
For data set [6], the system named is IL-8-induced neutrophil shape change in human whole blood. Nature of the data set: Whole blood neutrophil shape change assay (L). In kind it is cell-based. To be noted: IL-8, human whole blood, read-out: Assay L WBSC IC50.
Data set [7] has as its target T3, PI 3-kinase beta (Homo sapiens, UniProt P42338). The data set can be described thus: Kinase Glo Luminescent Kinase Assay (Kglo), assay B. In kind it is biochemical. As to conditions: read-out: Assay B PI3Kβ IC50.
Data set [8] concerns the target T4, PI 3-kinase delta (Homo sapiens, UniProt O00329). The data set can be described thus: TR-FRET Adapta assay, assay F. As to conditions: read-out: Assay F PI3Kδ IC50.
Target sequence in this assay (O00329 whole entry): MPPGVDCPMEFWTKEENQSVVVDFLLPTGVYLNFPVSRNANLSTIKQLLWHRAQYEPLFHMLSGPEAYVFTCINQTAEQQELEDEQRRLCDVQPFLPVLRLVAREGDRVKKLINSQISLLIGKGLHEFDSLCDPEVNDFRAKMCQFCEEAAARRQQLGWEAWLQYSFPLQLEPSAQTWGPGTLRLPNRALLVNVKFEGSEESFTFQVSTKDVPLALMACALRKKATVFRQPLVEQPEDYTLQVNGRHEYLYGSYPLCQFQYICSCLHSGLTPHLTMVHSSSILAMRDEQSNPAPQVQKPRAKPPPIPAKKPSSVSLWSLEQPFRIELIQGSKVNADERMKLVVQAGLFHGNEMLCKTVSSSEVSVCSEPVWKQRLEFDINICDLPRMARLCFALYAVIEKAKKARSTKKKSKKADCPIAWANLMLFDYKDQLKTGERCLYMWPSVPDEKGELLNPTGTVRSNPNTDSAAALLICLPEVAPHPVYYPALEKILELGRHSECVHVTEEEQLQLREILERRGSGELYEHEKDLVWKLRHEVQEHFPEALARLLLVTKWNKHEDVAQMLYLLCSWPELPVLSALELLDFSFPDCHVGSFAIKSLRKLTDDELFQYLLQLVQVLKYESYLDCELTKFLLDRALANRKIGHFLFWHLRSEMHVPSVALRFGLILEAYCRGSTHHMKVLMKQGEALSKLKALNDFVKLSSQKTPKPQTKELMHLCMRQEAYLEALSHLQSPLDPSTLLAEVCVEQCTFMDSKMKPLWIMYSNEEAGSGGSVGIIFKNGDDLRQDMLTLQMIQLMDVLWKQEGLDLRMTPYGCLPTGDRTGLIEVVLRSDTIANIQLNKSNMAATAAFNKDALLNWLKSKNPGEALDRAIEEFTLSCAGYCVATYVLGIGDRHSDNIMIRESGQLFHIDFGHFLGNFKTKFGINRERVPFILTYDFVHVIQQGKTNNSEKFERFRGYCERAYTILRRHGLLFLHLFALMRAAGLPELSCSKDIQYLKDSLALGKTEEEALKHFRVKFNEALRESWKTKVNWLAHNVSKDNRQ
Target sequence in this assay (P27986 461-568 partner): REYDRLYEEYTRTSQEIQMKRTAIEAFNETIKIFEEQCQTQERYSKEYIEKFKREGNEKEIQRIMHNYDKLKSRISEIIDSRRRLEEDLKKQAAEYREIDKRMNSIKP
Data set [9] addresses T4, PI 3-kinase delta. The data set can be described thus: Cellular assay J1, p-Akt (S473) in Rat-1 cells, Surefire format. It is filed as cell-based. As to conditions: non-asterisked data: version J1 (Surefire format), Rat-1 cells; read-out: Assay J PI3Kδ IC50.
Target sequence in this assay (O00329 whole entry): as the sequence (O00329 whole entry) above
Target sequence in this assay (Q63787 whole entry partner): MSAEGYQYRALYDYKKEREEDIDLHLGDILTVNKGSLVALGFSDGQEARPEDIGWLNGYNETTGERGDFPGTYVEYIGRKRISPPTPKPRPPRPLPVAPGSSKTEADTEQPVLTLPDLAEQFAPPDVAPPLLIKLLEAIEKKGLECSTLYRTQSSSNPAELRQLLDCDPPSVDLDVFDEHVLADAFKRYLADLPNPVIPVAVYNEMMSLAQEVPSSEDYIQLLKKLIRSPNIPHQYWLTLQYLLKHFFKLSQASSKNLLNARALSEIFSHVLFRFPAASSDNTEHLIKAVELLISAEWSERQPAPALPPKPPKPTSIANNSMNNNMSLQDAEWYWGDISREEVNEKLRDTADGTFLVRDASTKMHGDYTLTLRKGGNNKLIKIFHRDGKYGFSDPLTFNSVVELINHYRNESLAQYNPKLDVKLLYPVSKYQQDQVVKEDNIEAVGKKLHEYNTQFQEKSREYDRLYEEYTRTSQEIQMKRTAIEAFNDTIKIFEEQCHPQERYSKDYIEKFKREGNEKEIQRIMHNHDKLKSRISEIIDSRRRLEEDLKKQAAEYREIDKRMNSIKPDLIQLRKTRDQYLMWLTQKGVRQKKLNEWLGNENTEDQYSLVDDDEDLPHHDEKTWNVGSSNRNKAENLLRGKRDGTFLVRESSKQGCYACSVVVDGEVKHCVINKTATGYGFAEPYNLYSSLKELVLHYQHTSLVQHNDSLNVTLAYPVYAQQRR
Data set [10] concerns the target T3, PI 3-kinase beta. Nature of the data set: Cellular assay I1, p-Akt (S473) in Rat-1 cells, Surefire format. It is filed as cell-based. As to conditions: non-asterisked data: version I1 (Surefire format), Rat-1 cells; read-out: Assay I PI3Kβ IC50.
The target of data set [11] is T2, PI 3-kinase alpha. The data set can be described thus: Cellular assay H1, p-Akt (S473) in Rat-1 cells, Surefire format. As to conditions: non-asterisked data: version H1 (Surefire format), Rat-1 cells; read-out: Assay H PI3Kα IC50. It is filed as cell-based.
The target of the next data set is mTOR (Homo sapiens, UniProt P42345). The data set can be described thus: Lanthascreen kinase binding assay, assay G. To be noted: read-out: Assay G mTOR IC50.

Read-outs that look alike come from different tables or passages of the source. Where only a bound is given, the exact number is not on record here.

The record followed here is patent publication US10004732B2 (Novartis AG, priority 2014, dated 2018).

By IC50 is commonly meant the concentration that gives 50% inhibition.

Description for mTOR: Lanthascreen™ Kinase Binding Assay for mTOR (G)
Binding of an inhibitor to the kinase competes for binding with the tracer, resulting in a loss of FRET.
50 nL of compound dilutions were dispensed onto white 384-well small volume polystyrene plate.

Take `Cc1ccc(S(=O)(=O)NCC[C@@H](O)C(F)(F)F)cc1-c1cnc(N)c(-c2cn(C)nc2C)n1` (single isomer, unassigned) [Example 52b, (R)-3-(5-Amino-6-(1,3-dimethyl-1H-pyrazol-4-yl)pyrazin-2-yl)-4-methyl-N-(4,4,4-trifluoro-3-hydroxybutyl)benzenesulfonamide or (S)-3-(5-Amino-6-(1,3-dimethyl-1H-pyrazol-4-yl)pyrazin-2-yl)-4-methyl-N-(4,4,4-trifluoro-3-hydroxybutyl)benzenesulfonamide]: the “Assay M RLM CI(int)” value in data set [1] was 43 µL/min/mg. Also, the IC50 on PI 3-kinase gamma [2] was 26 nM; on PI 4-kinase beta it was 4200 nM; at PI 3-kinase alpha [3], 230 nM; at Vps34, > 10000 nM; at PI 3-kinase gamma [4] it was 337 nM; at PI 3-kinase gamma [5], 60 nM. In data set [6], the IC50 was 550 nM.

Take `CCN1CCC[C@@H]1CNS(=O)(=O)c1ccc(C)c(-c2cnc(N)c(-c3cnc(C)s3)n2)c1` [Example 41, (R)-3-(5-Amino-6-(2-methylthiazol-5-yl)pyrazin-2-yl)-N-((1-ethylpyrrolidin-2-yl)methyl)-4-methylbenzenesulfonamide]: the half-maximal inhibitory concentration (IC50) at PI 3-kinase beta [7] is 250 nM; at PI 3-kinase delta [8] it was 20 nM; on PI 3-kinase delta [9], < 3 nM; at PI 3-kinase gamma [2], 10 nM; on PI 4-kinase beta it was 9400 nM; on PI 3-kinase alpha [3] it was 110 nM. Moreover, the IC50 at PI 3-kinase beta [10] is 980 nM; at Vps34, 7700 nM; at PI 3-kinase alpha [11], > 3000 nM; at PI 3-kinase gamma [4] it was 24 nM; at PI 3-kinase gamma [5], 39 nM. Besides, the “Assay M RLM CI(int)” value in data set [1] was found to be 314 µL/min/mg.

For the compound `Cc1ncc(-c2nc(-c3cc(S(=O)(=O)NC[C@H]4CCOC4)ccc3C)cnc2N)s1` [Example 42, (R)-3-(5-Amino-6-(2-methylthiazol-5-yl)pyrazin-2-yl)-4-methyl-N-((tetrahydrofuran-3-yl)methyl)benzenesulfonamide], the IC50 on PI 3-kinase beta [7] turned out to be 660 nM; at PI 3-kinase delta [8] it was 30 nM; at PI 3-kinase delta [9], 160 nM; at PI 3-kinase gamma [2] it was 7 nM; at PI 4-kinase beta, 3500 nM; at PI 3-kinase alpha [3], 30 nM. Besides, the IC50 at PI 3-kinase beta [10] was found to be 790 nM; on Vps34, 4650 nM; on PI 3-kinase alpha [11], 130 nM; at PI 3-kinase gamma [4], 18 nM; at PI 3-kinase gamma [5], 14 nM. The “Assay M RLM CI(int)” value in data set [1] is 160 µL/min/mg.

For the compound `Cc1ncc(-c2nc(-c3cc(S(=O)(=O)NCC4(O)CCOCC4)ccc3C)cnc2N)s1` [Example 45.10, 3-(5-Amino-6-(2-methylthiazol-5-yl)pyrazin-2-yl)-N-((4-hydroxytetrahydro-2H-pyran-4-yl)methyl)-4-methylbenzenesulfonamide], the IC50 amounted to 340 nM on PI 3-kinase beta [7]; 150 nM at PI 3-kinase delta [8]; 10 nM at PI 3-kinase gamma [2]; 1900 nM on PI 4-kinase beta; 20 nM on PI 3-kinase alpha [3]; 3900 nM at Vps34. The IC50 on PI 3-kinase gamma [4] was determined as 30 nM; in [6] (Homo sapiens, Neutrophil), 662 nM. In [1], the “Assay M RLM CI(int)” value came to 32 µL/min/mg.

With `Cc1ncc(-c2nc(-c3cc(S(=O)(=O)NCC4(O)COC4)ccc3C)cnc2N)s1` [Example 45.11, 3-(5-Amino-6-(2-methylthiazol-5-yl)pyrazin-2-yl)-N-((3-hydroxyoxetan-3-yl)methyl)-4-methylbenzenesulfonamide], the IC50 was 290 nM at PI 3-kinase beta [7]; 130 nM at PI 3-kinase delta [8]; 5 nM on PI 3-kinase gamma [2]; 1200 nM on PI 4-kinase beta; 40 nM at PI 3-kinase alpha [3]; 1600 nM at Vps34. For the same compound, the half-inhibitory concentration (IC50) was found to be 26 nM at PI 3-kinase gamma [4]; 12 nM at PI 3-kinase gamma [5]; 79 nM in data set [6] (Homo sapiens, Neutrophil). Further, the “Assay M RLM CI(int)” value in [1] is 43 µL/min/mg.

In the case of `Cc1ccc(S(=O)(=O)N2CC(F)C2)cc1-c1cnc(N)c(-n2cncn2)n1` [Example 127.5], the concentration for half-maximal inhibition (IC50) at PI 3-kinase beta [7] is 3100 nM; at PI 3-kinase delta [8] it was 3900 nM; on PI 3-kinase gamma [2] it was 100 nM; at PI 4-kinase beta it was > 10000 nM; at PI 3-kinase alpha [3], 400 nM; at mTOR, 1800 nM. Also, the IC50 on Vps34 is > 10000 nM; on PI 3-kinase gamma [4], 419 nM; in data set [6] (Homo sapiens, Neutrophil), 9680 nM. In addition, in [1], the “Assay M RLM CI(int)” value was 72 µL/min/mg.

For `Cc1ccc(S(=O)(=O)NCCC2(O)CCCCC2)cc1-c1cnc(N)c(-n2cncn2)n1` [Example 127.37], the IC50 on PI 3-kinase beta [7] is 1400 nM; on PI 3-kinase delta [8] it was 1500 nM; at PI 3-kinase gamma [2] it was 34 nM; at PI 4-kinase beta, 8000 nM; at PI 3-kinase alpha [3] it was 650 nM; on mTOR, > 10000 nM. The IC50 is > 10000 nM on Vps34; 408 nM on PI 3-kinase gamma [4]; 230 nM on PI 3-kinase gamma [5]; 6220 nM in data set [6] (Homo sapiens, Neutrophil).

Consider `Cc1ccc(S(=O)(=O)N2CC(CO)C2)cc1-c1cnc(N)c(-n2cncn2)n1` [Example 127.45], for which the IC50 amounted to 6200 nM on PI 3-kinase beta [7]; 1500 nM on PI 3-kinase delta [8]; 7270 nM at PI 3-kinase delta [9]; 60 nM at PI 3-kinase gamma [2]; 3400 nM at PI 4-kinase beta; 420 nM at PI 3-kinase alpha [3]. The IC50 is > 9100 nM on mTOR; 9050 nM at PI 3-kinase beta [10]; > 9100 nM at Vps34; 6110 nM at PI 3-kinase alpha [11]; 323 nM at PI 3-kinase gamma [4]; 2640 nM in data set [6] (Homo sapiens, Neutrophil). For the same compound, the “Assay M RLM CI(int)” value in data set [1] was found to be 26 µL/min/mg.

In the case of `Cc1ccc(S(=O)(=O)NCC2(C)CCCO2)cc1-c1cnc(N)c(-c2cn(C)nc2C)n1` (stereo not shown) [Example 128.4, 3-(5-Amino-6-(1,3-dimethyl-1H-pyrazol-4-yl)pyrazin-2-yl)-4-methyl-N-((2-methyltetrahydrofuran-2-yl)methyl)benzenesulfonamide], the IC50 at PI 3-kinase beta [7] was 1700 nM; on PI 3-kinase delta [8], 500 nM; on PI 3-kinase delta [9] it was 780 nM; at PI 3-kinase gamma [2], 45 nM; on PI 4-kinase beta, > 10000 nM; on PI 3-kinase alpha [3], 100 nM. In addition, the IC50 on PI 3-kinase beta [10] was 1550 nM; on Vps34, > 10000 nM; at PI 3-kinase alpha [11], 1510 nM; at PI 3-kinase gamma [4], 280 nM; at PI 3-kinase gamma [5], 104 nM. Further, the “Assay M RLM CI(int)” value in [1] came out at 134 µL/min/mg.

For `Cc1ccc(S(=O)(=O)NC[C@@H]2COCCN2)cc1-c1cnc(N)c(-c2cn(C)nc2C)n1` [Example 128.6, (R)-3-(5-Amino-6-(1,3-dimethyl-1H-pyrazol-4-yl)pyrazin-2-yl)-4-methyl-N-(morpholin-3-ylmethyl)benzenesulfonamide], the IC50 at PI 3-kinase beta [7] is 7700 nM; at PI 3-kinase delta [8] it was 300 nM; at PI 3-kinase delta [9], > 10000 nM; on PI 3-kinase gamma [2], 190 nM; at PI 4-kinase beta, > 10000 nM; on PI 3-kinase alpha [3], 190 nM. For the same compound, the IC50 at PI 3-kinase beta [10] is > 10000 nM; at Vps34, > 10000 nM; at PI 3-kinase alpha [11], > 10000 nM; on PI 3-kinase gamma [4] it was 193 nM; in data set [6] (Homo sapiens, Neutrophil), 2180 nM. For the same compound, the “Assay M RLM CI(int)” value in [1] is 20 µL/min/mg.

As to `Cc1cc(-c2nc(-c3cc(S(=O)(=O)NC[C@H]4CCCO4)ccc3C)cnc2N)ccn1` [Example 129.12, (R)-3-(5-amino-6-(2-methylpyridin-4-yl)pyrazin-2-yl)-4-methyl-N-((tetrahydrofuran-2-yl)methyl)benzenesulfonamide], the IC50 at PI 3-kinase beta [7] is > 9100 nM; at PI 3-kinase delta [8], 910 nM; on PI 3-kinase delta [9] it was 4970 nM; at PI 3-kinase gamma [2], 58 nM; on PI 4-kinase beta, > 9100 nM; at PI 3-kinase alpha [3], 1200 nM. The IC50 was 8700 nM on mTOR; > 10000 nM on PI 3-kinase beta [10]; > 9100 nM on Vps34; 4290 nM on PI 3-kinase alpha [11]; 1600 nM on PI 3-kinase gamma [4]; 804 nM at PI 3-kinase gamma [5]. Moreover, in [1], the “Assay M RLM CI(int)” value came to 99 µL/min/mg.

For the compound `Cc1cc(-c2nc(-c3cc(S(=O)(=O)NC[C@H]4CCNC4)ccc3C)cnc2N)ccn1` [Example 129.36, (S)-3-(5-amino-6-(2-methylpyridin-4-yl)pyrazin-2-yl)-4-methyl-N-(pyrrolidin-3-ylmethyl)benzenesulfonamide], the IC50 at PI 3-kinase beta [7] is 6900 nM; on PI 3-kinase delta [8], 960 nM; at PI 3-kinase gamma [2] it was 110 nM; on PI 4-kinase beta, > 9100 nM; at PI 3-kinase alpha [3], 1300 nM; on mTOR it was > 9100 nM. The IC50 at PI 3-kinase beta [10] was > 3000 nM; at Vps34 it was > 9100 nM; at PI 3-kinase alpha [11], > 10000 nM; on PI 3-kinase gamma [4], > 10000 nM; at PI 3-kinase gamma [5], 6210 nM. In data set [1], the “Assay M RLM CI(int)” value stood at 15 µL/min/mg.
